Results published in patent US20240325493A1, “REGULATOR OF TUMOR CELL FUNCTIONS AND USES THEREOF” (Washington University, priority 2023, published 2024).

Experiments:
[1] = tested on: Zbtb46 in MCEC (mouse cardiac endothelial cells); assay: Zbtb46 mRNA expression in MCEC cells treated with tumor-derived factors; assay type: cell-based; conditions: in vitro, 24 hours
Experimental: FIG. 13A is a set of graphs of Zbtb46 mRNA expression in MCEC cells, with loading control b-Actin (left) and Gapdh (right), treated with PBS or tumor-conditioned media (TCM) for 24 hours. n≥3/group. One-way ANOVA with Dunnett's test.
(§1) Quantitative real-time reverse transcription PCR (qRT-PCR) was performed. cDNA was prepared with qScript™ CDNA SuperMix (Cat: 101414-106, VWR) according to the manufacturer's protocol. Gene expression was measured by quantitative real-time RT-PCR using primers.

[2] = tested on: Zbtb46 in bone marrow-derived dendritic cells (BMDC); assay: Zbtb46 mRNA expression in bone marrow-derived dendritic cells treated with tumor-derived factors; assay type: cell-based, mouse; conditions: in vitro, 24 hours, vs PBS
Experimental: FIG. 13B is a graph of Zbtb46 mRNA expression in bone marrow-derived dendritic cells (BMDC) treated with PBS, prostaglandin E2 (PGE2), vascular endothelial growth factor (VEGF), or retinoic acid (RA) for 24 hours. n≥3/group. One-way ANOVA with Dunnett's test.
as §1

Row | Compound | Zbtb46 expression in EC [1] | Zbtb46 expression in DC [2]
1 | CCCCC[C@H](O)/C=C/[C@H]1[C@H](O)CC(=O)[C@@H]1C/C=C\CCCC(=O)O [PGE2, prostaglandin E2] | downregulated | downregulated
2 | VEGF | downregulated | downregulated
